Laboratory results: patent US20100234364A1, “CCR2 INHIBITORS AND METHODS OF USE THEREOF” (priority 2007, published 2010)
pIC50: −log10 of the molar value.

Biological target: T1, CCR2 (Homo sapiens, UniProt P41597)
T1 construct: chemokine expressing cells (such as THP-1 cells for CCR2 assay or MOLT-4 cells for CCR9 assay); host or cells: THP-1 cells
Test: chemotaxis (conventional migration), ligand binding or calcium mobilization (calcium flux) assays
Assay type: cell-based
Conditions: Table 2: activity in one of the chemotaxis
Protocol: THP-1 cells and MOLT-4 cells were obtained from the American Type Culture Collection (Manassas, Va.) and cultured in RPMI tissue culture medium supplemented with 10% fetal calf serum (FCS) in a humidified 5% CO2 incubator at 37° C. Recombinant human chemokine proteins MCP-1 and TECK were obtained from R&D Systems (Minneapolis, Minn.). ^125I-labeled MCP-1 protein was obtained from Amersham (Piscataway, N.J.). ChemoTX® chemotaxis microchambers were purchased from Neuro Probe (Gaithersburg, Md.). CyQUANT® cell proliferation kits were purchased from Molecular Probes (Eugene, Oreg.). Calcium indicator dye Fluo-4 AM was purchased from Molecular Devices (Mountain View, Calif.).
Conventional-migration assay was used to determine the efficacy of potential receptor antagonists in blocking migration mediated through chemokines (such as CCR2 or CCR9). This assay was routinely performed using the ChemoTX® microchamber system with a 5-μm pore-sized polycarbonate membrane. To begin such an assay, chemokine expressing cells (such as THP-1 cells for CCR2 assay or MOLT-4 cells for CCR9 assay) were harvested by centrifugation of cell suspension at 1000 RPM on a GS-6R Beckman centrifuge. The cell pellet was resuspended in chemotaxis buffer (HBSS with 0.1% BSA) at 10×10^6cells/mL for CCR2 assay (5 ×10^6cells/mL for CCR9 assay). Test compounds at desired concentrations were prepared from 10 mM stock solutions by serial dilutions in chemotaxis buffer. An equal volume of cells and compounds were mixed and incubated at room temperature for 15 minutes. Afterwards, 20 μL of the mixture was transferred onto the porous membrane of a migration microchamber, with 29 μL of chemokine ligand (0.1 nM chemokine MCP-1 protein for CCR2 assay or 50 nm chemokine TECK protein for CCR9 assay) placed at the lower chamber. Following an incubation at 37° C. (90-minute for CCR2; 150-minute for CCR9), during which cells migrated […] the chemokine gradient, the assay was terminated by removing the cell drops from atop the filter. To quantify cells migrated across the membrane, 5 μL of 7X CyQUANT® solution was added to each well in the lower chamber, and the fluorescence signal measured on a Spectrafluor Plus fluorescence plate reader (TECAN, Durham, N.C.). The degree of inhibition was determined by comparing migration signals between compound-treated and untreated cells. IC50 calculation was further performed by non-linear squares regression analysis using Graphpad Prism (Graphpad Software, San Diego, Calif.).
Calcium flux assay measures an increase in intracellular calcium following ligand-induced receptor activation. In the screen of chemokine antagonists, it was used as a secondary assay carried out on a FLIPR® machine (Molecular Devices, Mountain View, Calif.). To begin an assay, chemokine expressing cells (such as THP-1 cells for CCR2 assay or MOLT-4 cells for CCR9 assay) were harvested by centrifugation of cell suspension, and resuspended to 1.5×10^6 cells/mL in HBSS (with 1% fetal calf serum). Cells were then labeled with a calcium indicator dye Fluo-4 AM for 45 minutes at 37° C. with gentle shaking. Following incubation, cells were pelletted, washed once with HBSS and resuspended in the same buffer at a density of 1.6×10^6 cells/mL. One hundred microliters of labeled cells were mixed with 10 μL of test compound at the appropriate concentrations on an assay plate. Chemokine protein (MCP-1 at a final concentration of 0.1 nM for CCR2 assay or TECK at a final concentration of 25 nM for CCR9 assay) to activate the receptor. The degree of inhibition was determined by comparing calcium signals between compound-treated and untreated cells. IC50 calculations were further performed by non-linear squares regression analysis using Graphpad Prism (Graphpad Software, San Diego, Calif.).
Ligand binding assay was used to determine the ability of potential CCR2 antagonists to block the interaction between CCR2 and its ligand MCP-1. […]

T1 sequence (P41597 whole entry): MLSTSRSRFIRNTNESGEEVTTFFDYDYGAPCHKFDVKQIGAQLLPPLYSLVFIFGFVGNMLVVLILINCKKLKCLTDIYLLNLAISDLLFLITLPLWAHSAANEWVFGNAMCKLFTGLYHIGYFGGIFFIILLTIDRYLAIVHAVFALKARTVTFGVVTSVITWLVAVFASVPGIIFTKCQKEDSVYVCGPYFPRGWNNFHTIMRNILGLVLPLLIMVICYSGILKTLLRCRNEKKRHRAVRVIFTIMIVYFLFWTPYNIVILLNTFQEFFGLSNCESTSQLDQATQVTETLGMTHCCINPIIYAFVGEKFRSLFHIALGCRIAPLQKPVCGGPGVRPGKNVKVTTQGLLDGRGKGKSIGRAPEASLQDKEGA

pIC50 | Structure (SMILES)
> 6.30 | O=C(c1ccccc1)c1cc(Cl)ccc1NS(=O)(=O)c1ccc(Cl)c(C(F)(F)F)c1 [drawing 302]
> 6.30 | Cn1ccnc1C(O)c1cc(Cl)ccc1NS(=O)(=O)c1ccc(Cl)c(Cl)c1 (stereo not drawn) [drawing 303]
> 6.30 | O=S(=O)(Nc1ccc(Cl)cc1-c1nnn[nH]1)c1ccc(Cl)c(Cl)c1 [drawing 304]
> 6.30 | O=C(c1ccc(F)cc1)c1cc(Cl)ccc1NS(=O)(=O)c1ccc(Cl)c(Cl)c1 [drawing 305]
> 6.30 | O=C(c1ccccc1F)c1cc(Cl)ccc1NS(=O)(=O)c1ccc(Cl)c(Cl)c1 [drawing 306]
> 6.30 | Cn1ccc(C(=O)c2cc(Cl)ccc2NS(=O)(=O)c2ccc(Cl)c(C(F)(F)F)c2)n1 [drawing 311]

Same assay, conditions: Table 3: activity in one of the chemotaxis

pIC50 | Structure (SMILES)
5.30 to 6.30 | Cn1ccc(C(=O)c2cc(Cl)ccc2NS(=O)(=O)c2ccc(Cl)c(C(F)(F)F)c2)n1 [drawing 322]
5.30 to 6.30 | O=S(=O)(Nc1ccc(Cl)cc1-c1nnn[nH]1)c1ccc(Cl)c(Cl)c1 [drawing 325]
5.30 to 6.30 | Cn1ccnc1C(O)c1cc(Cl)ccc1NS(=O)(=O)c1ccc(Cl)c(Cl)c1 (stereo not drawn) [drawing 327]
5.30 to 6.30 | O=C(c1ccccc1)c1ccc(Br)cc1NS(=O)(=O)c1ccc(Cl)c(Cl)c1 [drawing 328]
5.30 to 6.30 | O=C(c1ccccc1)c1cc(Cl)ccc1NS(=O)(=O)c1ccc(Cl)cc1 [drawing 330]
5.30 to 6.30 | O=C(c1ccccc1F)c1cc(Cl)ccc1NS(=O)(=O)c1ccc(Cl)c(Cl)c1 [drawing 335]
5.30 to 6.30 | O=C(c1ccc(F)cc1)c1cc(Cl)ccc1NS(=O)(=O)c1ccc(Cl)c(Cl)c1 [drawing 336]
5.30 to 6.30 | O=C(c1ccccc1)c1cc(Cl)ccc1NS(=O)(=O)c1ccc(Cl)c(C(F)(F)F)c1 [drawing 337]
5.30 to 6.30 | O=C(c1ccccc1)c1cc(F)ccc1NS(=O)(=O)c1ccc(Cl)c(Cl)c1 [drawing 338]
5.30 to 6.30 | O=C(c1ccccc1)c1cc(Cl)ccc1NS(=O)(=O)c1ccc(Cl)c(Cl)c1 [drawing 342]
5.30 to 6.30 | O=C(c1ccccc1)c1ccc(Cl)cc1NS(=O)(=O)c1ccc(Cl)c(C(F)(F)F)c1 [drawing 344]
5.30 to 6.30 | O=C(c1ccc(Cl)cc1NS(=O)(=O)c1ccc(Cl)c(C(F)(F)F)c1)N1CCCCC1 [drawing 371]
